Measurements from patent publication US9643967B2, “Pyrrolo[3,2-c]pyridine derivatives as TLR inhibitors” (TAKEDA PHARMACEUTICAL COMPANY LIMITED, priority 2013, dated 2017).
Like-named read-outs stand apart in the source and are kept apart here.

Columns and labels:
[1] = system: lupus-prone MRL lpr/lpr mice; assay: Mouse lupus disease model, anti-dsDNA IgG titers (ELISA); format: in vivo; details: female MRL/lpr mice; for mean anti-dsDNA IgG titers after 6 weeks of treatment: oral QD, 3, 10 and 30 mg/kg
Description: Mouse Lupus Disease Model
Examples B6 and B11 were tested in well studied mouse model of lupus, lupus-prone MRL lpr/lpr mice that develop disease similar to human SLE [J Exp Med., 1978, 148 (5), 1198-1215]. These mice develop spontaneous systemic autoimmunity with both molecular (IFN signature) and clinical (autoantibody production and glomerulonephritis) features similar to human SLE. Anti-dsDNA antibodies are correlated with human SLE and the reduction in anti-dsDNA antibodies is believed to be of potential clinical benefit. Positive TLR7 and/or TLR9 target validation results have been reported for this disease model.
Mouse Lupus Disease Model Strain:
Female MRL/lpr mice were purchased from Jackson Laboratories (USA) which manifest spontaneous lupus disease. Female MRL/lpr mice were treated for 9 weeks by oral route once a day with TLR-7/9 antagonists [Examples B6 and B11] at 3, 10 and 30 mg/kg doses. Prednisolone (2 mg/kg, P.O., QD) was used as a positive control during the studies. At the end of treatment period, animals were sacrificed and blood samples were collected to estimate anti-dsDNA IgG titers using anti-dsDNA IgG ELISA kit, Alpha Diagnostics, USA.

[2] = target: T1, mTLR7 (Mus musculus, UniProt P58681); assay: mTLR7 antagonism (IL-6 and TNF-α release assay) in mouse splenocytes, R0006/DOTAP stimulated; format: cell-based; details: 1 μM, mouse splenocytes
T1 construct: Splenocytes isolated from male C57/BL6 mice; from tissue; host or cells: splenocytes from the spleen of male C57BL/6 mice
T1 sequence (P58681 27-1050): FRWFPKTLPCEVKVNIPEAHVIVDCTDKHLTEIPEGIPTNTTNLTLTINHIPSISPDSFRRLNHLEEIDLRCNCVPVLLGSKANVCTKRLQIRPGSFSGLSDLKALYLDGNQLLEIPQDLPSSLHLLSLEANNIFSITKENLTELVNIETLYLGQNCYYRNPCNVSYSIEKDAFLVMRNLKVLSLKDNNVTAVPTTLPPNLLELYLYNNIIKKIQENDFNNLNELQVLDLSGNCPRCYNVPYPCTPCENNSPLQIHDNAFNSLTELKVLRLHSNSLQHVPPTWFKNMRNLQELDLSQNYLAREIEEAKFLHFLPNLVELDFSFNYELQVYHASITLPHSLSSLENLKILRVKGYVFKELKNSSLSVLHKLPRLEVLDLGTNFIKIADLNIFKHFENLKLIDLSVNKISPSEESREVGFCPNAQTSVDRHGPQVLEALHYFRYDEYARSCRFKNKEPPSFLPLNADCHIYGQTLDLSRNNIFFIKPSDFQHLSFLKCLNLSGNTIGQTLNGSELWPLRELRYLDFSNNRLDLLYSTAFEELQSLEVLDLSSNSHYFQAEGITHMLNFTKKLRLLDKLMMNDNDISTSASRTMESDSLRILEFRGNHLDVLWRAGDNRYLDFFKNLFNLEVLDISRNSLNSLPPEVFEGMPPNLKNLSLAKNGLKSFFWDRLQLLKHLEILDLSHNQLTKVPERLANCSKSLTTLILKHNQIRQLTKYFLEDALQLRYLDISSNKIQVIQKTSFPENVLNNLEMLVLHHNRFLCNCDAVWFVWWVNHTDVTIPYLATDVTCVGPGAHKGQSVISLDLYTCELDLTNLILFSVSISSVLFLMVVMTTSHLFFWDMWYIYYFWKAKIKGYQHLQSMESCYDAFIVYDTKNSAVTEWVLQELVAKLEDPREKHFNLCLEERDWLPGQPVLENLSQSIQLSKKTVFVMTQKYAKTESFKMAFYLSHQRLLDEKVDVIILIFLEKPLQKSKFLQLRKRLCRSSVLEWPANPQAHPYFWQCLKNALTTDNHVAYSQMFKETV
Outline: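 C57BL6 splenocytes (0.2 million/well) preincubated 30 min with compounds (30 μM to 1 nM, 0.3% DMSO), then stimulated with R0006/DOTAP liposome complex at 1 μg/ml final, overnight, 37 °C, 5% CO2. IL-6 and TNF-α in supernatant by ELISA; IC50 from inhibition curves.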

[3] = IL-6 release, read-out: mTLR7 inhibitory activity (% at 1 μM), IL-6
[4] = TNF-α release, read-out: mTLR7 inhibitory activity (% at 1 μM), TNF-α

inhibition at 1 µM [2, 3] [%] | inhibition at 1 µM [2, 4] [%] | SMILES | also measured
100 | 100 | Cc1nc(-c2ccc(N3CCN(C(C)C)CC3)cc2)c2cc(CCN3CCOCC3)[nH]c2c1C [Example B6, 4-[2-[4-[4-(4-isopropylpiperazin-1-yl)phenyl]-6,7-dimethyl-1H-pyrrolo[3,2-c]pyridin-2-yl]ethyl]morpholine] | anti-dsDNA IgG after 9 weeks of treatment ([1]; 10 mg/kg once daily oral, 9 weeks, 10 mg/kg): Significant reduction; mean anti-dsDNA IgG titers after 6 weeks of treatment [1]: trend towards dose dependent reduction
100 | 100 | Cc1cc2c(cc(CCN3CCOCC3)n2C)c(-c2ccc(N3CCN(C(C)C)CC3)cc2)n1 [Example B11, 4-[2-[4-[4-(4-isopropylpiperazin-1-yl)phenyl]-1,6-dimethyl-pyrrolo[3,2-c]pyridin-2-yl]ethyl]morpholine] | mean anti-dsDNA IgG titers after 6 weeks of treatment [1]: dose dependent reduction
100 | 100 | Cc1cc2c(cc(CCN3CCOCC3)n2C)c(-c2cccc(N3CCN(C(C)C)CC3)c2)n1 [Example B21, 4-[2-[4-[3-(4-isopropylpiperazin-1-yl)phenyl]-1,6-dimethyl-pyrrolo[3,2-c]pyridin-2-yl]ethyl]morpholine] | –
100 | 100 | COc1cc(-c2nc(C)cc3c2cc(CCN2CCOCC2)n3C)ccc1N1CCN(C(C)C)CC1 [Example B22, 4-[2-[4-[4-(4-isopropylpiperazin-1-yl)-3-methoxy-phenyl]-1,6-dimethyl-pyrrolo[3,2-c]pyridin-2-yl]ethyl]morpholine] | –
100 | 100 | Cc1cc2c(cc(CCN3CCOCC3)n2C)c(-c2ccc(N3CCN(C(C)C)[C@@H](C)C3)cc2)n1 [Example B23, 4-[2-[4-[4-[(3S)-4-isopropyl-3-methyl-piperazin-1-yl]phenyl]-1,6-dimethyl-pyrrolo[3,2-c]pyridin-2-yl]ethyl]morpholine] | –
– | – | Cc1cc2c(cc(CCN3CCOCC3)n2C)c(C2CCC(N3CCN(C(C)C)CC3)CC2)n1 (stereo not drawn) [Example B26, 4-[2-[4-[4-(4-isopropylpiperazin-1-yl)cyclohexyl]-1,6-dimethyl-pyrrolo[3,2-c]pyridin-2-yl]ethyl]morpholine] | mTLR7 inhibitory activity (% at 1 μM), IL-6 ([2]; IL-6 release): 62%; mTLR7 inhibitory activity (% at 1 μM), TNF-α ([2]; TNF-α release): 47%
– | – | Cc1cc2c(cc(CCN3CCOCC3)n2C)c(C2CCC(N3CCN(C(C)C)CC3)CC2)n1 (stereo not drawn) [Example B27, 4-[2-[4-[4-(4-isopropylpiperazin-1-yl)cyclohexyl]-1,6-dimethyl-pyrrolo[3,2-c]pyridin-2-yl]ethyl]morpholine] | mTLR7 inhibitory activity (% at 1 μM), IL-6 ([2]; IL-6 release): 88%; mTLR7 inhibitory activity (% at 1 μM), TNF-α ([2]; TNF-α release): 77%
100 | 100 | Cc1cc2c(cc(CCN3CCOCC3)n2C)c(-c2ccc(C3CCN(C(C)C)CC3)cc2)n1 [Example B31, 4-[2-[4-[4-(1-isopropyl-4-piperidyl)phenyl]-1,6-dimethyl-pyrrolo[3,2-c]pyridin-2-yl]ethyl]morpholine] | –
– | 100 | CC(C)N1CCN(c2ccc(-c3nccc4[nH]c(CCCN5CCOCC5)cc34)cc2)CC1 [Example C1, 4-[3-[4-[4-(4-isopropylpiperazin-1-yl)phenyl]-1H-pyrrolo[3,2-c]pyridin-2-yl]propyl]morpholine] | –
– | 100 | CN1CCN(c2ccc(-c3nccc4[nH]c(CCCN5CCOCC5)cc34)cc2)CC1 [Example C2, 4-[3-[4-[4-(4-methylpiperazin-1-yl)phenyl]-1H-pyrrolo[3,2-c]pyridin-2-yl]propyl]morpholine] | –
100 | 100 | Cc1cc2[nH]c(CCCN3CCOCC3)cc2c(-c2ccc(N3CCN(C(C)C)CC3)cc2)n1 [Example C3, 4-[3-[4-[4-(4-isopropylpiperazin-1-yl)phenyl]-6-methyl-1H-pyrrolo[3,2-c]pyridin-2-yl]propyl]morpholine] | –
100 | 97 | Cc1cc2[nH]c(CCCN3CCCCC3)cc2c(-c2ccc(N3CCN(C(C)C)CC3)cc2)n1 [Example C5, 4-[4-(4-isopropylpiperazin-1-yl)phenyl]-6-methyl-2-[3-(1-piperidyl)propyl]-1H-pyrrolo[3,2-c]pyridine] | –
100 | 100 | Cc1cc2c(cc(CCCN3CCOCC3)n2C)c(-c2ccc(N3CCN(C(C)C)CC3)cc2)n1 [Example C6, 4-[3-[4-[4-(4-isopropylpiperazin-1-yl)phenyl]-1,6-dimethyl-pyrrolo[3,2-c]pyridin-2-yl]propyl]morpholine] | –
